Residues, ends and D or L forms follow the SMILES beside them. No end group written: not given here.
What follows are molecules tested on HIV (assay: microbe, parasite or virus in culture). Settings: human PBMCs.
Type: cell-based, HIV-1
Method: Fresh human blood was obtained commercially from Interstate Blood Bank, Inc. (Memphis, Tenn.). The lymphotropic clinical isolate HIV-1ROJO was obtained from a pediatric patient attending the AIDS Clinic at the University of Alabama at Birmingham. The laboratory-adapted HIV-1IIIB strain was propagated and tittered in fresh human PBMCs; pre-titered aliquots of HIV-1ROJO and Hiv-1IIIB were removed from the freezer (−80° C.) and thawed rapidly to room temperature in a biological safety cabinet immediately before use. Phytohemagglutinin (PHA-P) was obtained from Sigma (St. Louis, Mo.) and recombinant IL-2 was obtained from Amgen (San Francisco, Calif.).
Fresh human PBMCs were isolated from screened donors, seronegative for HIV and HBV. Leukophoresed blood was diluted 1:1 with Dulbecco's phosphate buffered saline (PBS), layered over 14 mL of Ficoll-Hypaque density gradient in a 50 mL centrifuge tube and then centrifuged for 30 minutes at 600×g. Banded PBMCs were aspirated from the resulting interface and subsequently washed 2× with PBS by low speed centrifugation. After the final wash, cells were enumerated by trypan blue exclusion and re-suspended at 1×10^7 cells/mL in RPMI 1640 supplemented with 15% Fetal Bovine Serum (FBS), 2 mM L-glutamine, 4 μg/mL PHA-P. The cells were allowed to incubate for 48-72 hours at 37° C. After incubation, PBMCs were centrifuged and reset in RPMI 1640 with 15% FBS, 2 mM L-glutamine, 100 U/ml penicillin, 100 μg/mL streptomycin, 10 μg/mL gentamycin, and 20 U/mL recombinant human IL-2. PBMCs were maintained in this medium at a concentration of 1-2×10^6 cells/mL with biweekly medium changes until used in the assay protocol.
For the standard PBMC assay, PHA-P stimulated cells from at least two normal donors were pooled, diluted in fresh medium to a final concentration of 1×10^6 cells/mL, and plated in the interior wells of 96 well round bottom microplate at 50 μL/well (5×10^4 cells/well). Test drug dilutions were prepared at a 2× concentration in microtiter tubes and […] of each concentration was placed in appropriate wells in a standard format. […] Wells with cells and virus alone were used for virus control. Separate plates were prepared identically without virus for drug cytotoxicity studies using an XTT assay system. The PBMC cultures were maintained for seven days following infection, at which time cell-free supernate samples were collected and assayed for reverse transcriptase activity as described below.
A microtiter based reverse transcriptase (RT) reaction was utilized. See Buckheit et al., AIDS Research and Human Retroviruses 7:295-302 (1991). Tritiated thymidine triphosphate (NEN) (TTP) was resuspended in distilled H2O at 5 Ci/ml. Poly rA and oligo dT were prepared as a stock solution which was kept at −20° C. The RT reaction buffer was prepared fresh on a daily basis and consists of 125 μl 1M EGTA, 125 μl dH2O, 110 μl 10% SDS, 50 μl 1M Tris (pH 7.4), 50 μl 1M DTT, and 40 μl 1M MgCL2. These three solutions were mixed together in a ratio of 2 parts TTP, 1 part poly rA:oligo dT, and 1 part reaction buffer. Ten microliters of this reactions mixture was placed at a round bottom microtiter plate and 15 μl of virus containing supernatant was added and mixed. […] Opti-Fluor-O (Packard) was added to each sample and incorporated radioactivity was quantified utilizing a Wallac 1450 MicroBeta Plus liquid scintillation counter.
With `C[C@H](NC(=O)[C@@H](NC(=O)[C@@H]1CCCN1C(=O)[C@H](CCC(=O)O)NC(=O)[C@@H]1CCCN1C(=O)[C@H](CCCNC(=N)N)NC(=O)[C@H](CCCNC(=N)N)NC(=O)[C@H](CCCNC(=N)N)NC(=O)[C@H](CCCNC(=N)N)NC(=O)[C@H](CCCNC(=N)N)NC(=O)[C@H](CCCNC(=N)N)NC(=O)[C@H](CCCNC(=N)N)NC(=O)[C@H](CCCNC(=N)N)NC(=O)[C@@H](N)CCCNC(=N)N)[C@@H](C)O)C(=O)N1CCC[C@H]1C(=O)N[C@@H](CCC(=O)O)C(=O)N[C@@H](CCC(=O)O)C(=O)O` [MPI-PEP1, NH2—(R)9-PEPTAPEE-COOH] (H-RRRRRRRRRPEPTAPEE-OH) the “Comments (anti-HIV activity)” value was “Active”.
In the case of `C[C@H](NC(=O)[C@@H](NC(=O)[C@@H]1CCCN1C(=O)[C@H](CCC(=O)O)NC(=O)[C@@H]1CCCN1C(=O)[C@@H](N)CCCNC(=N)N)[C@@H](C)O)C(=O)N1CCC[C@H]1C(N)=O` [MPI-PEP3, NH2-RPEPTAP-CO—NH2] (H-RPEPTAP-NH2), the “Comments (anti-HIV activity)” value is reported as “Inactive”.
For `CC(C)C[C@H](NC(=O)[C@H](C)NC(=O)[C@@H](NC(=O)[C@@H]1CCCN1C(=O)[C@H](CCC(=O)O)NC(=O)[C@@H]1CCCN1C(=O)[C@H](CCCNC(=N)N)NC(=O)[C@H](CCCNC(=N)N)NC(=O)[C@H](CCCNC(=N)N)NC(=O)[C@H](CCCNC(=N)N)NC(=O)[C@H](CCCNC(=N)N)NC(=O)[C@H](CCCNC(=N)N)NC(=O)[C@H](CCCNC(=N)N)NC(=O)[C@H](CCCNC(=N)N)NC(=O)[C@@H](N)CCCNC(=N)N)[C@@H](C)O)C(=O)N[C@@H](CCC(=O)O)C(=O)N[C@@H](CCC(=O)O)C(=O)O` [MPI-PEP2, NH2—(R)9-PEPTALEE-COOH] (H-RRRRRRRRRPEPTALEE-OH), the “Comments (anti-HIV activity)” value was “Inactive”.

These molecules were tested against T1, Tsg101 (Homo sapiens, UniProt Q99816) (assay: Two-hybrid liquid culture β-galactosidase assay). Settings: full length Tsg101, liquid culture, p6 point mutants.
T1 sequence (Q99816 1-390): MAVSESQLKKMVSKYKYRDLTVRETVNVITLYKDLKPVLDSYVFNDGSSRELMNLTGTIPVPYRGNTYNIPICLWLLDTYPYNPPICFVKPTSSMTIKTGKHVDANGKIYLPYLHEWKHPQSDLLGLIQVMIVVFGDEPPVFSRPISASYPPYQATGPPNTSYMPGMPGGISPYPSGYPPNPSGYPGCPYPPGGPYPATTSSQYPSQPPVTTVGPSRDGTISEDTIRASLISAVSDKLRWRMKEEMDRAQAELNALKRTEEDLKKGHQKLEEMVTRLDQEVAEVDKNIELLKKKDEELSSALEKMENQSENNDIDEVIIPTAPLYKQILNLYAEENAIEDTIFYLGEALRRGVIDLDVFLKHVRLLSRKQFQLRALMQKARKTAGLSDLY
Type: cell-based
Parameters: expressed in transfected cells
Method: The interactions between TSG101 and wild-type p6gag (WT) or the p6gag PTAP (SEQ ID NO:1) mutants were further quantitated by performing liquid culture β-galactosidase assays. Cultures were grown overnight in synthetic media (−Leu, −Trp, +glucose) in 96 well plates, normalized for optical density, and lysed by addition of 6× lysis/substrate solution in 6× Z-buffer (60 mM KCl, 6 mM MgSO4, 360 mM Na2HPO4, 240 mM NaH2PO4, 6 mg/ml CPRG, 0.12 U/ml lyticase, 0.075% NP-40). Cultures were incubated for 2 hr at 37° C., clarified by centrifugation, and the optical absorbance of each supernatant was measured (575 nm). Full length Tsg101 bound wild-type p6 in the two-hybrid liquid culture assay, resulting in high levels of β-galactosidase activity (>300-fold over background). […] Each of these point mutations also arrests HIV-1 budding at a late stage (Huang et al. 1995).
“p6(A9R): HIV1 p6gag binding domain construct with A9R substitution in the PTAP motif (LQSRPEPTRPPEESFRFGEETTTPSQKQEPIDKELYPLASLRSLFGSDPSSQ; not fully specified)” was tested, and the “β-galactosidase activity (in words)” value was “reduced β-galactosidase activity to background levels”.
For “p6(P10L): HIV1 p6gag binding domain construct with P10L substitution in the PTAP motif (LQSRPEPTALPEESFRFGEETTTPSQKQEPIDKELYPLASLRSLFGSDPSSQ; not fully specified)”, the “β-galactosidase activity (in words)” value was “reduced β-galactosidase activity to background levels”.
With “p6(P7L): HIV1 p6gag binding domain construct with P7L substitution in the PTAP motif (LQSRPELTAPPEESFRFGEETTTPSQKQEPIDKELYPLASLRSLFGSDPSSQ; not fully specified)” the “β-galactosidase activity (in words)” value was “reduced β-galactosidase activity to background levels”.
